According to US11369586B2, “Antifungal peptoids” (MIDDLE TENNESSEE STATE UNIVERSITY, priority 2018, dated 2022):

Experiments:
[1] = tested on: C. neoformans H99S (serotype A lab strain); experiment: Minimum inhibitory concentration (MIC) testing, CLSI broth dilution, PrestoBlue viability; assay type: cell-based, Cryptococcus neoformans
Experimental: The minimum inhibitory concentration (MIC) was determined against C. neoformans H99S (serotype A lab strain) as previously described. (Corson, et al. ACS Med. Chem. Lett. 2016, 7(12).) All MIC assays were carried out following CLSI guidelines. (CLSI. Reference method for broth dilution antifungal susceptibility testing of yeasts; approved standard-third edition; CLSI document M27-A3; Clinical and Laboratory Standards Institute: Wayne, Pa.) Briefly, the organism to be tested was streaked from frozen stock for isolation and incubated for 96 hours. A 5 mL solution of 0.85% saline was inoculated with 1-2 colonies of the organism of interest, and the inoculated solution was vortexed for one minute. The optical density at 530 nanometers (nm) was acquired on a spectrophotometer and adjusted through addition of saline or cells to obtain an OD530nm of 0.15 to 0.25. A 1:100 solution of Roswell Park Memorial Institute (RPMI) media containing 3-morpholinopropane sulfonic acid (MOPS; 0.1 M) and cells was made by adding 0.100 mL of saline inoculated with cells to 9.9 mL of RMPI. The solution was vortexed and used to make a 1:20 solution by adding and vortexing 0.5 mL of the 1:100 solution to 9.5 mL of RPMI+0.1 M MOPS. (This was repeated twice to make a total of 20 mL of 1:20 RPMI+ cells.)
Two-fold serial dilutions of peptoid were prepared in water at 100 times the concentration to be tested. In a 96-well plate, 198 μL of 1:20 RPMI+cells was placed in each well followed by 2 μL of 100-times compound or vehicle control in triplicate. The plate was incubated at 35° C. for 72 hours. For viability analysis, 20 μL of PrestoBlue was added to each well, the plate incubated for 8 hours, and the fluorescent intensity of each well measured (Ex. 555 nm; Em. 585 nm). All triplicate assays were repeated twice on different days.

[2] = tested on: HepG2 hepatocarcinoma cells; experiment: Mammalian cytotoxicity testing (MTT), HepG2; assay type: cell-based; settings: for toxicity dose 50% (TD50), HepG2: sarcosine scan
Experimental: (§1) NIH/3T3 mouse fibroblasts and HepG2 hepatocarcinoma cells, cells were grown in DMEM containing 10% FBS at 37° C. and 5% CO2 atmosphere. For cytotoxicity testing, cells were seeded into 96-well plates in phenol red free DMEM containing 10% FBS and incubated for 2 hours to allow cell attachment. Cells were then treated with varying concentrations of peptoid or vehicle control. After 72 hours incubation, 3-(4,5-dimethylthiazol-2-yl)-2,5-diphenyltetrazolium bromide (MTT; 20 μL; 5 mg/mL) was added to each well and the plate incubated for 3.5 hours. Media was removed from each well and 100 μL of DMSO was added and the plate incubated at 37° C. for 10 minutes. The absorbance at 570 nm was then read on a spectrophotometer, percent inhibition determined, and TD50 calculated using GraFit. All triplicate assays were repeated twice on different days.

[3] = tested on: human red blood cells (hRBCs); experiment: Hemolytic activity against human red blood cells; assay type: cell-based; settings: human erythrocytes, HC10
Experimental: The hemolytic activity of peptoids against human red blood cells (hRBCs) was done as previously described. (Murugan et al. Bioorg. Med. Chem. Lett. 2013, 23(16), 4633-4636.) Briefly, hRBCs were washed 3× with PBS (11.8 mM phosphate; 140.4 mM NaCl; pH 7.4) by centrifugation (10 minutes at 1000×g). Cells were resuspended in PBS and 100 μL aliquots placed into individual wells of a 96-well plate. Peptoid solutions (2-fold serial dilution in PBS; 400-3.13 μg/mL final) were added to the wells. A negative control was prepared by adding PBS with no peptoid to the hRBCs and a positive control was prepared by adding 1% Triton X-100 to the hRBCs. The plate was incubated at 37° C. for 1 hour, centrifuged at 1000×g for 10 minutes, and 5 μL of supernatant transferred into 95 μL of PBS in a new 96-well plate. Released hemoglobin was measured by reading the absorbance at 405 nm on a spectrophotometer. All triplicate assays were repeated twice on different days. Percent hemolysis was calculated as follows:
[formula] The Hill Slope (H) and HC50 was determined using GraFit and HC10 was calculated from HC50 using the following equation: HC10=HC50[10%/(100%−10%)]^1/H NMR Analysis

[4] = tested on: NIH/3T3 mouse fibroblasts; experiment: Mammalian cytotoxicity testing (MTT), NIH/3T3; assay type: cell-based
Experimental: as §1, with “For” for “NIH/3T3 mouse fibroblasts and HepG2 hepatocarcinoma cells, cells were grown in DMEM containing 10% FBS at 37° C. and 5% CO2 atmosphere. For”

[5] = Corson et al. 2016; cited from earlier work
[6] = C. neoformans MIC, relative to AEC5

CNCC(=O)N(CCCCN)CC(=O)N(CC(N)=O)Cc1ccco1 [AEC5sar1]
antifungal potency (MIC), above highest concentration tested ([1]; sarcosine scan): > 400 m/mL | toxicity dose 50% (TD50), HepG2 [2]: > 800 m/mL

CCCCCCCCCCCCCNCC(=O)N(CCCCN)CC(=O)N(CC(N)=O)Cc1cccs1 [γ-2]
fold improvement in antifungal potency compared to AEC5 [1, 6]: 2 fold | MIC ([1]; Cryptococcus neoformans, read-out: MIC against C. neoformans): < 3.5 µg/mL | level of hemolysis compared to AEC5 [3]: slightly higher levels of hemolysis | toxicity towards NIH/3T3 mouse fibroblasts compared to AEC5 [4]: decreased toxicity | selectivity ratio, NIH/3T3 mouse fibroblasts ([4]; NIH/3T3 toxicity and C. neoformans MIC): 21 | selectivity ratio (TD50/MIC) ([2]; HepG2 TD50 and C. neoformans MIC): 25.3

CCCCCCCCCCCCCNCC(=O)N(CCCCN)CC(=O)N(C)CC(N)=O [AEC5sar3]
fold decrease in antifungal potency compared to AEC5 [1, 6]: 8 fold | change of mammalian cell toxicity compared to AEC5 ([2]; HepG2): little effect on mammalian toxicity

CCCCCCCCCCCCCNCC(=O)N(CCCCN)CC(=O)N(CC(N)=O)Cc1ccco1 [AEC5, reference compound]
in vitro proteolytic stability [5]: excellent | TD50 against HepG2 liver cells ([2]; 72 hours incubation, MTT): 56.2 µg/mL | toxicity dose 50% (TD50), HepG2 [2]: 56.2 m/mL

CCCCCCCCCCCCCNCC(=O)N(C)CC(=O)N(CC(N)=O)Cc1ccco1 [AEC5sar2]
fold decrease in antifungal potency compared to AEC5 [1, 6]: 2 fold | fold change of toxicity dose 50% (TD50) compared to AEC5 ([2]; HepG2, relative to AEC5, printed as increased): 2 fold | toxicity dose 50% (TD50), HepG2 [2]: 21.1 m/mL
